Read-outs that look alike come from different tables or passages of the source.

Assay [1] has as its target T1, CDK4/cyclin D3 (Homo sapiens, UniProt P11802).
T1 construct: purchased Carna Biosciences, Inc. QS S Assist CDK4/Cyclin D3_FP Kit
As to the kind of experiment: Human CDK4/cyclin D3 inhibitory activity (QS S Assist CDK4/Cyclin D3_FP Kit, IMAP fluorescence polarization). The format is biochemical. Put shortly:
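IMAP fluorescence polarization kit: CDK4/cyclin D3 at 12.5-25 ng/well with kit ATP/substrate/metal mix in 20 mM HEPES pH 7.4, 0.01% Tween20, 2 mM DTT, 45 min at room temperature. FP read at 485/535 nm after 30 min binding; IC50 from dose-response fit of percent inhibition versus enzyme and no-enzyme controls.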

In assay [2] the target is T2, CDK2/cyclin A2 (Homo sapiens, UniProt P24941).
T2 construct: purchased Carna Biosciences, Inc. QS S Assist CDK2/Cyclin A2_FP Kit
As to the kind of experiment: Human CDK2/cyclin A2 inhibitory activity (QS S Assist CDK2/Cyclin A2_FP Kit, IMAP fluorescence polarization). The format is biochemical. Put shortly:
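Kinase activity read as fluorescence polarization (485/535 nm) after phosphorylated fluorescent substrate binds IMAP reagent (30 min, RT, dark). Enzyme (2.5 ng/well) reacted 60 min at RT with ATP/substrate/metal in HEPES pH 7.4 buffer with Tween 20 and DTT; no-enzyme wells define 0% activity; IC50 by curve fit.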

Setting [3] is: Human CDK4/cyclin D3 inhibitory activity, read-out: CDK4 Activity symbol.
Where [4] appears, read: Human CDK2/cyclin A2 inhibitory activity, read-out: CDK2 Activity symbol.
Setting [5] is: 50% inhibitory concentration against CDK4/cyclin D3, given as class symbol.
Where [6] appears, read: 50% inhibitory concentration against CDK2/cyclin A2, given as class symbol.

T1 sequence (P11802 whole entry): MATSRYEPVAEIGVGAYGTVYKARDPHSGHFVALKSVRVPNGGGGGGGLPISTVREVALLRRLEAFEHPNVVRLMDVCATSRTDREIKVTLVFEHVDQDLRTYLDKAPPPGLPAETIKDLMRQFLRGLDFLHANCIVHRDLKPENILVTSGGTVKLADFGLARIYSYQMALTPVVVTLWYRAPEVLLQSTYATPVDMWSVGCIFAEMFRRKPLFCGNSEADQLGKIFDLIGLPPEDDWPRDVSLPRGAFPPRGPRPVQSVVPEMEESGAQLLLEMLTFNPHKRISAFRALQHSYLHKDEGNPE
T1 sequence (P30281 whole entry partner): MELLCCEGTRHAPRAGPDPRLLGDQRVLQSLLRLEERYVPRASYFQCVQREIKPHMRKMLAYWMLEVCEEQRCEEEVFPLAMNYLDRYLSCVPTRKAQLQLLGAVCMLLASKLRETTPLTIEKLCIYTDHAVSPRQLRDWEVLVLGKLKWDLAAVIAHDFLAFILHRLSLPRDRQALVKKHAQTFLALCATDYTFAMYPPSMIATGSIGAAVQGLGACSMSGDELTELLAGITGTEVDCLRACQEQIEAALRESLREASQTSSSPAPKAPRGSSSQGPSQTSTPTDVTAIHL

With `CO[C@H](C)c1cc2cnc(Nc3ccc(N4CCNC5(CC5)C4)nn3)nc2c(N[C@H]2CCCOC2)n1` [Compound 376], the IC50 in assay [1] (setting [3]) was less than 0.01 µM; in assay [2] (setting [4]) it was not below 0.1 µM.
Taken in the same sequence, the figures for `CC(C)Nc1nc(C(F)F)cc2cnc(Nc3ccc(CN(C)C(N)=O)cn3)nc12` [Compound 185] were less than 0.01 µM and 0.01 to 0.1 µM.
Turning to `CCCNc1nc([C@@H](C)O)cc2cnc(Nc3ccc(CN4CCN(C(C)CO)CC4)cn3)nc12` (single isomer, unassigned) [Compound 1206], the results for the IC50 in assay [1] (setting [5]) and in assay [2] (setting [6]) were less than 0.01 µM and not below 0.1 µM, respectively.
Regarding `CC(C)Nc1nc([C@@H](C)O)cc2cnc(Nc3ccc(CN4CCC(C(C)(C)O)CC4)cn3)nc12` [Compound 549], the figures for the IC50 in assay [1] (setting [3]) and in assay [2] (setting [4]) were less than 0.01 µM and not below 0.1 µM, respectively.
On to `CC(C)Nc1nc([C@@H](C)O)cc2cnc(Nc3ccc(N4CCN(C(C)C(=O)O)CC4=O)cn3)nc12` (stereo partly drawn) [Compound 895], for which the IC50 in assay [1] (setting [5]) is less than 0.01 µM; in assay [2] (setting [6]), not below 0.1 µM.
On to `CC(C)Nc1nc(C(F)F)cc2cnc(Nc3ccc(N4CCC(CCCO)CC4)cn3)nc12` [Compound 51], for which the IC50 in assay [1] (setting [3]) is 0.01 to 0.1 µM; in assay [2] (setting [4]), not below 0.1 µM.
For `CC(C)Nc1nc(C(F)F)cc2cnc(Nc3ccc(CN4CCCC4C(=O)O)cn3)nc12` (stereo not drawn) [Compound 189], in that order: less than 0.01 µM and 0.01 to 0.1 µM.
On to `CCCNc1nc([C@@H](C)O)cc2cnc(Nc3ccc(N4CCNCC4)c(C)n3)nc12` [Compound 1092], for which the IC50 is less than 0.01 µM in assay [1] (setting [5]) and not below 0.1 µM in assay [2] (setting [6]).
For `CC(C)Nc1nc(C(C)O)cc2cnc(Nc3ccc(OC4CNCC4F)cn3)nc12` (stereo not drawn) [Compound 673], in that order: less than 0.01 µM and not below 0.1 µM.
As to `CNc1nc(C(C)O)cc2cnc(Nc3ccc(N4CCNCC4)cn3)nc12` (stereo not drawn) [Compound 22], the IC50 in assay [1] (setting [3]) was 0.01 to 0.1 µM; in assay [2] (setting [4]), not below 0.1 µM.
Take `COC[C@H](C)Nc1nc([C@@H](C)O)cc2cnc(Nc3ccc(OCCN(C)C)cn3)nc12` [Compound 754]: the IC50 in assay [1] (setting [5]) was 0.01 to 0.1 µM; in assay [2] (setting [6]), not below 0.1 µM.
For `CC(C)Nc1nc(C(F)F)cc2cnc(Nc3ccc(CCCN4CCCCS4(=O)=O)cn3)nc12` [Compound 170], the IC50 in assay [1] (setting [3]) was less than 0.01 µM; in assay [2] (setting [4]), not below 0.1 µM.
On to `CC(C)Nc1nc(C(F)F)cc2cnc(Nc3ccc(N4CCC(C(C)(C)O)CC4)nn3)nc12` [Compound 191], for which the IC50 in assay [1] (setting [3]) was less than 0.01 µM; in assay [2] (setting [4]), 0.01 to 0.1 µM.
For the molecule `CCCNc1nc([C@@H](C)O)cc2cnc(Nc3ccc4c(n3)CCNC4)nc12` [Compound 944], the IC50 in assay [1] (setting [5]) is less than 0.01 µM; in assay [2] (setting [6]), not below 0.1 µM.
Taken in the same sequence, the figures for `CC(C)Sc1nc([C@@H](C)O)cc2cnc(Nc3ccc(N4CCNCC4=O)cn3)nc12` [Compound 744] were less than 0.01 µM and not below 0.1 µM.
Taken in the same sequence, the figures for `CCCCNc1nc([C@@H](C)O)cc2cnc(Nc3ccc(CN4CCC(CO)CC4)cn3)nc12` [Compound 1148] were less than 0.01 µM and not below 0.1 µM.
Taken in the same sequence, the figures for `Cc1nc(Nc2ncc3c(Cl)c(C(F)F)nc(NC(C)C)c3n2)ccc1N1CCNCC1=O` [Compound 851] were 0.01 to 0.1 µM and not below 0.1 µM.
Turning to `CO[C@H](C)c1cc2cnc(Nc3ccc(N4CCNCC4)nn3)nc2c(N[C@H]2CC[C@H](C(=O)O)CC2)n1` [Compound 339], the IC50 was 0.01 to 0.1 µM in assay [1] (setting [3]) and not below 0.1 µM in assay [2] (setting [4]).
For `CC(C)Nc1nc([C@@H](C)O)cc2cnc(Nc3ccc(N4CCCCC(N)C4=O)cn3)nc12` (stereo partly drawn) [Compound 554], the results for the IC50 in assay [1] (setting [3]) and in assay [2] (setting [4]) were less than 0.01 µM and not below 0.1 µM, respectively.
Regarding `CO[C@H](C)c1cc2cnc(Nc3ccc(CN4CCNC[C@H]4C)cn3)nc2c(NC(C)C)n1` [Compound 978], the figures for the IC50 in assay [1] (setting [5]) and in assay [2] (setting [6]) were less than 0.01 µM and not below 0.1 µM, respectively.
`CC(C)Nc1nc([C@@H](C)O)cc2cnc(Nc3ccc(N4CCN(CC(=O)O)CC4=O)cn3)nc12` [Compound 833]: the figures for the IC50 in assay [1] (setting [5]) and in assay [2] (setting [6]) were less than 0.01 µM and not below 0.1 µM, respectively.
For `CC(C)Nc1nc([C@@H](C)O)cc2cnc(Nc3cc4c(cn3)CNCC4)nc12` [Compound 694], in that order: 0.01 to 0.1 µM and not below 0.1 µM.
Consider `CC(=O)N(Cc1ccc(Nc2ncc3cc(C(F)F)nc(NC(C)C)c3n2)nc1)CC1CCOCC1` [Compound 144], for which the IC50 in assay [1] (setting [3]) was less than 0.01 µM; in assay [2] (setting [4]) it was not below 0.1 µM.
For `CC(C)Nc1nc(C2CCCO2)cc2cnc(Nc3ccc(N4CCNCC4)nn3)nc12` (single isomer, unassigned) [Compound 714], the IC50 in assay [1] (setting [5]) and in assay [2] (setting [6]) was not below 0.1 µM in each case.
Consider `CC(O)c1cc2cnc(Nc3ccc(N4CCNCC4)cn3)nc2c(NC(C)(C)CO)n1` (stereo not drawn) [Compound 45], for which the IC50 in assay [1] (setting [3]) is less than 0.01 µM; in assay [2] (setting [4]), not below 0.1 µM.
For `CN(C)CCOc1ccc(Nc2ncc3cc(C(F)F)nc(N[C@H]4CC[C@H](C(=O)O)CC4)c3n2)nc1` [Compound 385], in that order: less than 0.01 µM and not below 0.1 µM.
For `CO[C@H](C)c1cc2cnc(Nc3ccc(CN4CCNC(=O)C4)cn3)nc2c(NC(C)C)n1` [Compound 176], in that order: 0.01 to 0.1 µM and not below 0.1 µM.
As to `CC(C)Nc1nc([C@@H](C)O)cc2cnc(Nc3ccc(C(=O)N4CCNC[C@H]4C)cn3)nc12` [Compound 1167], the IC50 is less than 0.01 µM in assay [1] (setting [5]) and 0.01 to 0.1 µM in assay [2] (setting [6]).
As for `CC(C)Nc1nc([C@@H](C)O)cc2cnc(Nc3ccc(N4CCCNCC4=O)cn3)nc12` [Compound 521], the values for the IC50 in assay [1] (setting [3]) and in assay [2] (setting [4]) were less than 0.01 µM and 0.01 to 0.1 µM, respectively.
Taken in the same sequence, the figures for `CC(C)Nc1nc([C@@H](C)O)cc2cnc(Nc3ccc(N4CCC(C)(N)CC4)nn3)nc12` [Compound 561] were less than 0.01 µM and not below 0.1 µM.
Consider `CC(C)Nc1nc([C@@H](C)O)cc2cnc(Nc3ccc4c(n3)CCN(CCN3CCCC3=O)C4)nc12` [Compound 955], for which the IC50 in assay [1] (setting [5]) is less than 0.01 µM; in assay [2] (setting [6]) it was not below 0.1 µM.
For `COC(=O)N1CCN(c2ccc(Nc3ncc4cc([C@@H](C)OC)nc(N[C@H]5CCCOC5)c4n3)nn2)CC1` [Compound 1056], in that order: 0.01 to 0.1 µM and not below 0.1 µM.
With `CC(C)Nc1nc([C@@H](C)O)c(Cl)c2cnc(Nc3ccc(N4CCNCC4=O)cn3)nc12` [Compound 247], the IC50 is less than 0.01 µM in assay [1] (setting [3]) and not below 0.1 µM in assay [2] (setting [4]).
For `CO[C@H](C)c1cc2cnc(Nc3ccc(N4CCN[C@@H](C)C4=O)cn3)nc2c(NC(C)C)n1` [Compound 463], in that order: less than 0.01 µM and not below 0.1 µM.
Taken in the same sequence, the figures for `CC(C)Nc1nc([C@@H](C)O)cc2cnc(Nc3ccc(N4CCCC(N)C4=O)cn3)nc12` (stereo partly drawn) [Compound 593] were less than 0.01 µM and not below 0.1 µM.
In the case of `CC(C)Nc1nc([C@@H](C)O)cc2cnc(Nc3ccc4c(n3)CCN(S(=O)(=O)N(C)C)C4)nc12` [Compound 935], the IC50 in assay [1] (setting [5]) was 0.01 to 0.1 µM; in assay [2] (setting [6]) it was not below 0.1 µM.
With `CO[C@H](C)c1cc2cnc(Nc3ccc(N4C[C@H]5CCN[C@H]5C4=O)cn3)nc2c(NC(C)C)n1` [Compound 556], the results for the IC50 in assay [1] (setting [3]) and in assay [2] (setting [4]) were less than 0.01 µM and 0.01 to 0.1 µM, respectively.
Consider `CC(C)Nc1nc([C@@H](C)O)cc2cnc(Nc3ccc(N4CCCC(C(=O)O)C4)cn3)nc12` (stereo partly drawn) [Compound 835], for which the IC50 in assay [1] (setting [5]) is 0.01 to 0.1 µM; in assay [2] (setting [6]), not below 0.1 µM.
For `CC(C)Nc1nc([C@@H](C)O)cc2cnc(Nc3ccc(N4CCN(CC(N)=O)CC4)nn3)nc12` [Compound 937], in that order: less than 0.01 µM and not below 0.1 µM.

Values taken from patent US10124004B2, “Pyrido[3,4-d]pyrimidine derivative and pharmaceutically acceptable salt thereof” (Teijin Pharma Limited, priority 2015, dated 2018).
